# In patent publication US8759095B2, “Diagnostic and therapeutic tools for diseases altering vascular function” (Universiteit Maastricht, priority 2007, dated 2014):
# What was measured:
# endothelial glycocalyx [1] = tested on: endothelial glycocalyx; parameters: species or system human; details: in vivo
# endothelial glycocalyx [2] = details: in vivo; cited from earlier work
# glycocalyx shedding = assay: Plasma glycocalyx components (hyaluronan, heparan sulphate) and hyaluronidase activity after endotoxin challenge; assay type: in vivo, human
# Experimental: (§1) Twentyone healthy Caucasian male volunteers were studied. […] Participants had no history of cardiovascular disease. […] All experiments were performed after an overnight fast.
# [3] = tested on: sublingual microcirculation; assay: Microvascular glycocalyx / capillary density by OPS imaging of the sublingual microcirculation after endotoxin challenge; assay type: in vivo, human; details: upon endotoxin challenge; from 59±7 at baseline; p<0.01
# Experimental: as §1
# Thickness of endothelial glycocalyx in individual capillary blood vessels was measured by orthogonal polarization spectral (OPS) imaging of the sublingual microcirculation (Cytometrics, Philadelphia, Pa., USA) as previously published (Nieuwdorp et al. 2006, supra; Nieuwdorp et al. 2006. Diabetes 55: 1127-32). In short, the width of flowing erythrocytes was measured in 5 individual capillaries before and immediately after capillary leukocyte passage. In healthy capillaries, the glycocalyx limits capillary blood filling by separating erythrocytes from the luminal endothelial surface, which is known as the red cell exclusion zone. […] Images sized 728×576 pixels were recorded were collected with a 5× objective providing a 325× magnification at a frame rate of 25/second. […] The anatomical capillary diameter and the width of the flowing erythrocyte column were measured using digital calipers prior to and after spontaneous capillary leukocyte passage. Per participant, glycocalyx dimension was determined in at least 5 capillaries. […] In addition as indication of capillary density, the number of capillaries per field was counted.
# [4] = tested on: TNFα-induced inflammatory responses; assay: Plasma inflammatory markers (IL-6, CRP) and circulating leukocytes after endotoxin challenge; assay type: in vivo, human
# Experimental: as §1
# [5] = tested on: thrombin generation and fibrinolysis; assay: Coagulation and fibrinolysis markers (prothrombin fragment F1+2, D-dimer) after endotoxin challenge; assay type: in vivo, human; details: p<0.05
# Experimental: as §1
# monocytes = assay: Leukocyte differentiation and monocyte flow cytometry after endotoxin challenge; assay type: in vivo, human
# Experimental: as §1
# Whole blood samples were collected in pyrogen-free lithium-heparin tubes and then incubated for 10 min with 9 volumes ice-cold erythrocyte lysis buffer and centrifuged for 10 min at 4° C. Remaining cells were washed twice with ice-cold PBS. For flow cytometric analysis 0.5×10^6 cells were incubated in FACS buffer mixed with antibody. All reagents were titrated to obtain optimal results as recommended by the manufacturers. Cell surface staining was performed with Fluorescein Isothiocyanate (FITC) labelled mouse anti-human CD14 (IgG2a), anti-human Allophycocyanin (APC) labelled CD18 (IgG1) and Phycoerythrin (PE) labelled anti-human CD11b (IgG1) and CD62L (IgG1) (R&D Systems, San Jose, Calif., USA). Appropriate isotype control antibodies were used to correct for non-specific antibody binding. After staining, the cells were washed, fixed in 4% paraformaldehyde, and analyzed by flow cytometry using a FACS Calibur flow cytometer. Data were analyzed with CellQuest software (Becton Dickinson, Franklin Lakes, N.J., USA).
# [6] = tested on: endotoxin-induced inflammatory reactions; assay: Clinical symptoms and vital signs after intravenous endotoxin challenge in healthy male volunteers; assay type: in vivo, human
# Experimental: as §1
# endothelial glycocalyx [7] = assay: Estimation of systemic glycocalyx volume (Dextran 40 distribution volume minus circulating plasma volume) after endotoxin challenge; assay type: in vivo, human; parameters: haematocrit values: unit not given here; details: 4 hours after endotoxin infusion
# Experimental: as §1
# Systemic glycocalyx volume was estimated as previously published by subtracting circulating plasma volume from the intravascular distribution volume of the glycocalyx permeable tracer Dextran 40 (Nieuwdorp M et al. 2006. Diabetes 55: 480-6; Suffredini et al. 1999, supra). Circulating plasma volume was calculated with a previously published method (Orth et al. 1998. Anesth Analg 87: 1234-8). The intravascular distribution volume of labelled autologous erythrocytes was used to quantify the circulating blood volume. Blood was drawn and centrifuged at 1,330 rpm for 5 minutes. Subsequently, sodium fluorescein (fluorescein-di-Na 25%, 250 mg/ml, AZUA Pharmacy, Amsterdam, the Netherlands) was added to the erythrocyte fraction for 5 minutes. After careful washing, labelled erythrocytes were resuspended in saline to the initial volume (60 ml) and re-infused. Subsequently, blood was drawn at 4, 5, 6, and 7 minutes after infusion. The fraction of labelled erythrocytes in the total erythrocyte pool was used to estimate the circulating erythrocyte volume (VERY). Pre-injection unlabeled erythrocytes served as negative control. The fraction of labelled erythrocytes in the blood was measured using a FACScan analyzer (FACS Calibur®, Becton Dickinson, Mountain View, USA). At least 100,000 cells were counted. Data were analyzed by Cellquest (Becton Dickinson, San Jose, Calif., USA). Haematocrit (Ht) was measured after centrifugation of heparinized blood in a Hettich-Haematokrit centrifuge at 10,000 rpm during 5 minutes (Hettich, Tuttlingen, Germany). Circulating plasma volume was calculated from VERY and large vessel Ht by the following formula: circulating plasma volume=([1−Ht]×VERY)/Ht.
# Dextran 40 (Rheomacrodex; NPBI International, Emmercompascuum, the Netherlands) was used as a probe to estimate total intravascular volume, which includes the glycocalyx compartment. A bolus of 10 ml Dextran 1 (Promiten; NPBI International, Emmer-compascuum, the Netherlands) was injected to attenuate the risk of anaphylactic reactions prior to Dextran 40 infusion. 100 ml Dextran 40 was injected intravenously, followed by repeated blood sampling at 5, 7, 10, 15, 20, and 30 minutes. Dextran 40 concentration was calculated by measuring the increase in glucose concentration in the post infusion samples after hydrolyzation of Dextran 40 glucose polymers (Van Kreel et al. 1998. Clin Chim Acta 275: 71-80). Glucose concentration per time point was assessed in duplicate using the hexokinase method (Gluco-quant, Hitachi 917; Hitachi). To determine the initial intravascular distribution volume of Dextran 40, the concentration of Dextran 40 at the time of injection was estimated by exponential fitting of the measured Dextran 40 concentrations. Exponential time constants (τ [min]) were used to determine Dextran 40 systemic clearance rates (τ^−1 min^−1).
compound,measurement,setting,value
O=[N+]([O-])OCC(CO[N+](=O)[O-])O[N+](=O)[O-] [nitroglycerine],"status of the glycocalyx (RBCW, glycocalyx width; FIGS. 5A and 5B)",endothelial glycocalyx [1],a clear distinction between the status of the glycocalyx in treated and untreated subjects
same,effect on the glycocalyx as known,endothelial glycocalyx [2],known to cause damage to the glycocalyx
Etanercept,"plasma hyaluronidase activity, change compared to baseline","glycocalyx shedding; 4 hours after endotoxin infusion, ns",−8±14%
same,plasma heparan sulphate levels,"glycocalyx shedding; 24 hours after endotoxin infusion, p<0.01 versus saline group",7.4 ± 1.5 µg/mL
same,heparan sulphate plasma levels,"glycocalyx shedding; during the 4 hours after endotoxin challenge, from 5.4±1.3, ns",5.1 ± 1.0 µg/mL
same,plasma hyaluronan levels,"glycocalyx shedding; within first hour after endotoxin infusion, from 58±13, p<0.05",46 ± 10 ng/mL
same,capillary density (number of capillaries per field),[3],43±15
same,number of circulating leukocytes compared to baseline,"[4]; 4 hours after endotoxin, both treatment groups",doubled
same,plasma CRP,"[4]; after endotoxin challenge, from 0.6±0.4 at baseline, p<0.01",16.0 ± 3.4 mg/L
same,plasma IL-6,"[4]; after endotoxin challenge, from 4.6±3.1 at baseline, p<0.05",127 ± 98 pg/mL
same,D-dimer,[5]; from 0.2±0.1 at baseline,0.3 ± 0.1 mg/L
same,prothrombin activation fragment F1+2,[5]; from 0.3±0.1 at baseline,2.1 ± 0.9 nmol/L
same,reduction of monocyte count,"monocytes; 4 hours after endotoxin infusion, p<0.05 compared to baseline",51±32%
same,change in percentage of CD62L+ (L-selectin) expressing monocytes,"monocytes; 4 hours after endotoxin, p<0.05 versus saline group",+66±42%
same,CD14+ monocyte counts,"monocytes; after endotoxin infusion, ns between groups",26±13%
same,"CD11b+/CD18+ (Mac-1 complex) monocyte count, median","monocytes; after endotoxin infusion, p<0.01 versus saline",0.65±0.1
same,body temperature,"[6]; 4 hours after endotoxin infusion, from 36.6±0.5 at baseline, ns",37.3±0.5 °C
same,heart rate,"[6]; 4 hours after endotoxin infusion, from 62±4 at baseline, ns",69±3
same,diastolic blood pressure,"[6]; 4 hours after endotoxin infusion, from 69±6 at baseline, ns",67±6 mm Hg
same,systolic blood pressure,"[6]; 4 hours after endotoxin infusion, from 125±7 at baseline, ns",123±10 mmHg
same,"clinical symptoms of endotoxemia (chills, headache, myalgia, nausea)","[6]; after endotoxin infusion, saline versus Etanercept group, data not shown",more frequently and more intensive in the saline group compared to the Etanercept group
same,systemic glycocalyx volume,"endothelial glycocalyx [7]; baseline 1.7±0.5, p<0.01",1.1 ± 0.2 L
same,systemic Dextran 40 clearance rate,"endothelial glycocalyx [7]; from 0.009±0.002 at baseline, ns",0.009 ± 0.001 min⁻¹
same,haematocrit values,"endothelial glycocalyx [7]; from 0.43±0.02 at baseline, ns",0.42±0.02
same,circulating plasma volume,"endothelial glycocalyx [7]; from 2.9±0.5 at baseline, ns",2.8 ± 0.6 L
same,Dextran 40 distribution volume,"endothelial glycocalyx [7]; from 4.6±0.6 at baseline, p<0.05",3.9 ± 0.5 L
same,rate of Dextran 40 plasma clearance (FIG. 1B),endothelial glycocalyx [7]; saline group versus Etanercept group,increased in the saline group as compared with Etanercept group
